# Laboratory results reported in paper PMC5999526 (Shock (Augusta, Ga.), 2018).
# “Also recorded” adds a separate entry of the source.
# What was measured:
# [1] = test system: CD14+ human blood monocytes; experiment: Gene expression by qRT-PCR in LPS-induced CD14+ monocytes; assay type: cell-based; settings: for expression of Bax / expression of Bcl2 / proteasome subunits RNA (X, Y, Z): resveratrol 80 μM or ONX-0914 0.25 μM; for LPS-induced atg7 expression / LPS-induced expression of resistin / expression of ICAM-1 / expression of IFNγ / expression of IL-8 / expression of LMP10 subunit / expression of Sirt-1 / expression of TNF-α / mRNA expression of LMP2 subunit / mRNA expression of LMP7 subunit: resveratrol 80 μM or ONX-0914 0.25 μM pretreatment 1h, LPS 10 ng/mL 4h; for proteasome subunits RNA (X, Y, Z): with LPS 10 ng/mL 4h
# [2] = test system: PA proteasome activity in THP1 cells; experiment: Cell-based proteasome activity, luminescence assay; parameters: species or system human; settings: read-out: IC50, PA activity (cellular), 30 min incubation
# [3] = molecular target: purified human 20S immunoproteasome (LMP7, LMP2 and LMP10), CT-like activity (Homo sapiens, UniProt P28062); experiment: Purified proteasome fluorescence assay, CT-like activity, immunoproteasome; assay type: biochemical
# [4] = test system: CT-like proteasome activity in THP1 cells; experiment: Cell-based proteasome activity, luminescence assay; parameters: species or system human; settings: read-out: IC50, CT-like activity (cellular), 30 min incubation
# monocytes = experiment: MTT and LDH cell death assay; settings: 80 μM, human monocytes, MTT, LDH or autophagy tests
# [5] = MTT and LDH cell death assay; settings: human
# THP1 cells = experiment: Cyto-ID autophagy detection assay, THP1 cells; assay type: cell-based, human; settings: 4h incubation, resveratrol 80 μM, ONX-0914 0.25 μM
# [6] = molecular target: purified human 20S immunoproteasome (LMP subunits), PA activity (Homo sapiens, UniProt P28065); experiment: Purified proteasome fluorescence assay, PA activity, immunoproteasome; assay type: biochemical
# [7] = test system: T-like proteasome activity in THP1 cells; experiment: Cell-based proteasome activity, luminescence assay; parameters: species or system human; settings: read-out: IC50, T-like activity (cellular), 30 min incubation
# [8] = molecular target: purified human 20S proteasome, PA activity (Homo sapiens, UniProt P28072); experiment: Purified proteasome fluorescence assay, PA activity, constitutive proteasome; assay type: biochemical
# [9] = test system: pIκBα in CD14+ human blood monocytes; experiment: pIκBα protein levels by immunoblot; assay type: cell-based; settings: LPS 10 ng/ml-induced monocytes, resveratrol 80 μM or ONX-0914 0.25 μM, 60 min preincubation
# [10] = test system: CD14+ human blood monocytes; experiment: Cyto-ID autophagy detection assay, blood monocytes; assay type: cell-based; settings: 4h incubation, resveratrol 80 μM
# [11] = molecular target: purified human 20S proteasome (X, Y and Z), CT-like activity (Homo sapiens, UniProt P28074); assay type: biochemical
# [12] = test system: purified human 20S proteasome and immunoproteasome, T-like activity; experiment: Purified proteasome fluorescence assay, T-like activity; assay type: biochemical
# [13] = test system: purified human 20S proteasome and immunoproteasome, PA activity; experiment: Purified proteasome fluorescence assay, PA activity; assay type: biochemical; settings: 50 μM dose, cell-free
smiles,measurement,setting,value
"Oc1ccc(C=Cc2cc(O)cc(O)c2)cc1 [resveratrol, 3,5, 4′-trihydroxystilbene]",expression of Bax,[1],no change; also recorded: didn’t notice any effect
same,expression of Bcl2,[1],no change; also recorded: didn’t notice any effect
same,LPS-induced atg7 expression,[1],downregulated
same,LPS-induced expression of resistin,[1],decreased
same,expression of ICAM-1,[1],significantly downregulated
same,expression of IFNγ,[1],significantly downregulated
same,expression of IL-8,[1],significantly downregulated
same,expression of LMP10 subunit,[1],no significant change
same,expression of Sirt-1,[1],no significant upregulation
same,expression of TNF-α,[1],significantly downregulated
same,mRNA expression of LMP2 subunit,[1],robust decrease
same,mRNA expression of LMP7 subunit,[1],robust decrease
same,"proteasome subunits RNA (X, Y, Z)",[1],did not observe a significant change
same,"expression of beclin1, eIF2α, p53 and hdac6 genes","[1]; resveratrol 80 μM, with or without LPS 10 ng/mL",no significant change
same,IC50,[2],1370 nM
same,IC50,[3],39.8 µM
same,IC50,[4],1900 nM
same,cell death,monocytes,no cell death was observed
same,"viability at 4 h, 100 μM",[5],> 90%
same,induction of autophagy,THP1 cells,did not induce autophagy
same,IC50,[6],40.8 µM
same,IC50,[7],5 µM
same,IC50,[8],52.9 µM
same,degradation of pIκBα protein,[9],inhibited degradation of pIκBα protein levels
same,induction of autophagy,[10],did not induce autophagy
same,IC50,[11],59.4 µM
same,inhibition of T-like activity,"[12]; 100 μM dose, cell-free",33%
"COc1ccc(C[C@H](NC(=O)[C@H](C)NC(=O)CN2CCOCC2)C(=O)N[C@@H](Cc2ccccc2)C(=O)C2(C)CO2)cc1 (stereo in doubt) [ONX-0914, reference compound]",expression of Bax,[1],didn’t notice any effect
same,expression of Bcl2,[1],didn’t notice any effect
same,LPS-induced atg7 expression,[1],but not by ONX-0914
same,LPS-induced expression of resistin,[1],decreased
same,expression of ICAM-1,[1],significantly downregulated
same,expression of IFNγ,[1],significantly downregulated
same,expression of IL-8,[1],significantly downregulated
same,expression of LMP10 subunit,[1],no significant change
same,expression of Sirt-1,[1],no significant upregulation
same,expression of TNF-α,[1],significantly downregulated
same,mRNA expression of LMP2 subunit,[1],robust decrease
same,mRNA expression of LMP7 subunit,[1],robust decrease
same,"proteasome subunits RNA (X, Y, Z)",[1],did not observe a significant change
same,inhibition of PA activity,[13],30%
same,induction of autophagy,THP1 cells,resulted in autophagy and vacuole accumulation
same,degradation of pIκBα protein,[9],inhibited pIκBα protein degradation
same,inhibition of T-like activity,"[12]; highest dose of ONX-0914, cell-free",didn’t observe any inhibition
